Experimental findings from patent US6716842B2, “Antidiabetic agents” (Warner-Lambert Company, LLC, priority 2002, dated 2004) are described below.

Where two headings read alike, the source gives them in different places.

For the test, the system named is PPAR-γ (promoter/enhancer of the murine aP2 gene in 3T3-L1 cells). Briefly: 3T3-L1 transient reporter assay (AD3T3L1). Particulars: for % Max BRL: maximal effect relative to reference BRL 49653. In kind it is cell-based. How it is done:
TEST E—3T3-L1 TRANSIENT REPORTER ASSAY
This assay is used to determine the potential of putative PPAR-γ ligands to activate the promoter/enhancer of the murine aP2 gene. 3T3-L1 preadipocytes are cultured on collagen coated plates in DMEM containing 10% Calf serum for 48 hours post-confluence. The cells are then cultured for approximately 3 days in DMEM containing 10% Fetal Bovine Serum (FBS), 0.5-mM methyl isobutylxanthine, 0.25 μM dexamethasone, and 1 μg/ml of insulin. Cells are detached from the plates with Trypsin-EDTA and resuspended in Phosphate Buffered Saline (PBS).
The reporter construct used in this assay is comprised of the −5.4 Kb 5′ flanking region of the murine aP2 gene inserted into the cloning site of the TKpGL3 luciferase vector. Transfection efficiency is controlled by co-transfection of the reference plasmid CMV-β-galactosidase. The reporter construct and the reference plasmid are transiently co-transfected into the cells by electroporation. The transfected cells are plated into collagen coated 96-well plates and cultured overnight. Cells are then incubated for 48 hours with the test compounds and then harvested. The lysates are measured for luciferase and β-galactosidase activities using the Dual-Light® luciferase kit from Tropix on a EG&G Berthold MicroLumat LB96P luminometer.
For orientation: A reporter such as luciferase makes a cellular process visible.

For “3-{2-Hydroxy-4-[2-(5-methyl-2-phenyl-oxazol-4-yl)-ethoxy]-phenyl}-propionic acid ethyl ester”, the EC50 amounted to 5.9 µM and the “% Max BRL” value was 74%.
For `Cc1oc(-c2ccccc2)nc1CCOc1ccc(CCC(=O)O)c(O)c1` [3-[4-[2-(5-Methyl-2-phenyl-oxazol-4-yl)-ethoxy]-2-(hydroxy)-phenyl]-propionic acid], the “% Max BRL” value stood at 70%. In addition, the EC50 (Mus musculus) stood at 3.4 µM.
On the same counts, the results for `Cc1oc(-c2ccccc2)nc1CCOc1ccc(CCC(=O)O)c(OCc2ccccn2)c1` [3-[4-[2-(5-Methyl-2-phenyl-oxazol-4-yl)-ethoxy]-2-(pyridin-2-ylmethoxy)-phenyl]-propionic acid] are 108% and 0.103 µM.

In general, EC50 refers to the concentration at which the effect is half-maximal.
